# Measured values as given in US6172112A, “Retinoids and use thereof” (priority 1999, dated 2001).
# “Also recorded” adds a separate entry of the source. Where two headings read alike, the source gives them in different places.
# How the values were obtained:
# HL-60 cells = assay: retinoid induction of differentiation of HL-60 cells (NBT); assay type: cell-based; conditions: Homo sapiens, HL-60, 96 h; 4-day induction of differentiation; read-out: ED50 (nM) HL-60
# Description: (§1) Human leukemia cell line HL-60 and NB4 were used for measuring the ability of retinoids to induce terminal differentiation. Both cell lines are predominantly promyelocytes and are induced by retinoic acid to mature to cells with many characteristics of mature granulocytes. The induction of this differentiation is the basis for assaying one of the biological activities of retinoic acid analogues. For the differentiation assay, HL-60 or NB4 cells were grown in nutrient medium with fetal bovine serum as detailed by Breitman (15).
# (§2) The percentage of cells that gained this marker was measured microscopically. The percentage of positive cells was then plotted as a function of the retinoid concentration to determine ED50 and ED30 values used in the formation of isoboles.
# NB4 cells = assay: retinoid induction of differentiation of NB4 cells (NBT); assay type: cell-based, Human; conditions: for EC50: NB-4, 96 h, read-out: ED50 (nM) NB4
# Description: NB4 cells were obtained from Dr. Waxman after he received them from Dr. M. Lanotte. […] The cell were grown at 37° C. in a humidified atmosphere of 5% CO2 in air. Cell density was estimated on an electronic particle counter (Coulter electronic, Hialeah, Fla.) and cell viability with trypan bleu dye exclusion.
# as §1, §2
# mouse skin papilloma [1] = assay: mouse skin antipapilloma assay; conditions: 45.9 nmol dose
# Description: The mouse skin antipapilloma assay measured the ED50 values for retinoid tumor inhibition on the dorsal skin of mice. The inhibition of mouse skin papilloma by retinoids was performed according to a modification of the procedure developed by Verma and Boutwell (14) as reported previously by Muccio et al. (8).
# The UAB30 retinoids were evaluated next for their activity in preventing the chemical induction of papillomas on mouse skin (14).
# JMML cells = assay: inhibition of JMML spontaneous CFU-GM colony formation; conditions: Homo sapiens
# Description: Mononuclear cells were separated by density gradient centrifugation, washed, and frozen in aliquots. […] No growth factors or other exogenous stimuli were added to the cultures. UAB retinoids and retinoic acid isomers were dissolved in either 100% ethanol or DMSO. Appropriate dilutions were made, and controls using the respective ethanol or DMSO concentration were set up in parallel. Varying doses of retinoids were added only once, 24 hours after initiation of the soft agar assays, by pipetting the retinoid solution on top of the soft agar and allowing the solution to enter the agar and interact with the cells by diffusion. The cultures were incubated for 14 days at 37° C. in a humidified atmosphere with 5% CO2.
# RARα [2] = target: T1, RARα (Homo sapiens, UniProt P10276); assay: nuclear receptor radiolabeled competition binding, RARα
# T1 sequence (P10276 1-462): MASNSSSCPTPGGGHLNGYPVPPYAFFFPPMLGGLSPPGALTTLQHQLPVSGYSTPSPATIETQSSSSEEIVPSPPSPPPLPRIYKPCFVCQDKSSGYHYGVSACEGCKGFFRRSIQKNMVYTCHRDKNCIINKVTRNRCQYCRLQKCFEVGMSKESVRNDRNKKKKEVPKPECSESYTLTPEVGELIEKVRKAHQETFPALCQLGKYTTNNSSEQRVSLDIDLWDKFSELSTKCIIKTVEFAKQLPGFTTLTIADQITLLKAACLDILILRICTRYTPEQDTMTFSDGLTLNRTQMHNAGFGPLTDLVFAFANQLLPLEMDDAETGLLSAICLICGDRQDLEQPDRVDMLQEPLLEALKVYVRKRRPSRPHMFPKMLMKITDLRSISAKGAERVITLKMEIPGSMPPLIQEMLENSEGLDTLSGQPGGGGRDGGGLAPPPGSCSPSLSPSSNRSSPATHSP
# Description: (§3) For active retinoids, IC50 values were determined by titration with varying concentrations of UAB retinoids.
# RARβ [3] = target: T2, RARβ (Homo sapiens, UniProt P10826); assay: nuclear receptor radiolabeled competition binding, RARβ
# T2 construct: expressed in transfected cells; host or cells: CV-1 cells
# T2 sequence (P10826 1-455): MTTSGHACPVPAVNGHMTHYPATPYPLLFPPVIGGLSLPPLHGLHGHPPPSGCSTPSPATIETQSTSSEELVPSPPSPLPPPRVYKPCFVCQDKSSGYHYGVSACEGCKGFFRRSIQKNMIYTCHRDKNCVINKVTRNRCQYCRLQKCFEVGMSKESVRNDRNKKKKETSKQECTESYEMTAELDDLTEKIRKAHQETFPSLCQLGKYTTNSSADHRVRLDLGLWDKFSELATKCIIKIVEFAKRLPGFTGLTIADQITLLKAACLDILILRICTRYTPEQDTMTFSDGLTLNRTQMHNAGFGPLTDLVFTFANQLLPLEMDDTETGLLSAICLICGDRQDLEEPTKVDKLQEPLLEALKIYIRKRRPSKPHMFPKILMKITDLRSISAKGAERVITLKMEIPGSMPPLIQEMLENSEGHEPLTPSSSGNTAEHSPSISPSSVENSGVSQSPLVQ
# Description: as §3
# RARγ [4] = target: T3, RARγ (Homo sapiens, UniProt P13631); assay: nuclear receptor radiolabeled competition binding, RARγ
# T3 sequence (P13631 1-454): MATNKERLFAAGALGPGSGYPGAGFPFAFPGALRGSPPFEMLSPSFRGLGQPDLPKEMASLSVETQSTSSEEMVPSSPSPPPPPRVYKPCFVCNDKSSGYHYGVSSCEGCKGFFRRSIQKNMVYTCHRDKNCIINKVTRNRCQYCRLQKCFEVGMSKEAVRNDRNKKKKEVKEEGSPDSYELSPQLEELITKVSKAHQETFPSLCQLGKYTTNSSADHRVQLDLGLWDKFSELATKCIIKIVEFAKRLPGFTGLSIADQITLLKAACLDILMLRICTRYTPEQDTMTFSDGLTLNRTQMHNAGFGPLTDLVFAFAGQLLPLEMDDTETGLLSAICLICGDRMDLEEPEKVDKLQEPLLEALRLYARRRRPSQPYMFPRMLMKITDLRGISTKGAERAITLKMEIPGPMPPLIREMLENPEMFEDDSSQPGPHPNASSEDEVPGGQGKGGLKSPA
# Description: as §3
# RARα [5] = target: T1, RARα; assay: cell-based
# Description: (§4) These assays were performed in CV-1 cells with the RAR or RXR gene and the chloramphenicol acetyltransferase (CAT) reporter gene containing TREpal with a thymidine kinase promoter [(TREpal)2 -tk-CAT]. Twenty-four hours after transfection, cells were treated with a single dose of retinoid and the cell extracts were assayed for b-galactosidase and CAT activity. The antagonistic effects of UAB30 retinoids on the transcription of RAR-α were also determined in CV-1 cells. The methods are nearly identical to those used to perform transcriptional assays. These studies utilized the CAT reporter gene [(TREpal)2 -tk-CAT]. […] After 24 hours, cells were harvested and the transcriptional effects were measured in relative CAT activity, after correction with β-galactosidase activity for transfection efficiency. […] Experiments were performed in triplicate and the data were averaged.
# (§5) UAB30 isomers were evaluated in assays which measures their functional activity within cells to induce RARα-, RARβ-, and RARγ-mediated transcriptional activity. CV-1 cells were transiently transfected with DNA plasmid from the appropriate RAR subtype and (TREpal)2 -tk-CAT (9, 19).
# RARβ [6] = target: T2, RARβ; assay: RARβ-mediated transcriptional activation in CV-1 cells; assay type: cell-based
# Description: as §4, §5
# RARγ [7] = target: T3, RARγ; assay: RARγ-mediated transcriptional activation in CV-1 cells; assay type: cell-based
# Description: as §4, §5
# RARα/RXRα = target: T4, RARα/RXRα (Homo sapiens, UniProt P10276+P19793); assay: cell-based
# T4 sequence (P10276 1-462): T1 sequence (P10276 1-462)
# T4 sequence (P19793 1-462): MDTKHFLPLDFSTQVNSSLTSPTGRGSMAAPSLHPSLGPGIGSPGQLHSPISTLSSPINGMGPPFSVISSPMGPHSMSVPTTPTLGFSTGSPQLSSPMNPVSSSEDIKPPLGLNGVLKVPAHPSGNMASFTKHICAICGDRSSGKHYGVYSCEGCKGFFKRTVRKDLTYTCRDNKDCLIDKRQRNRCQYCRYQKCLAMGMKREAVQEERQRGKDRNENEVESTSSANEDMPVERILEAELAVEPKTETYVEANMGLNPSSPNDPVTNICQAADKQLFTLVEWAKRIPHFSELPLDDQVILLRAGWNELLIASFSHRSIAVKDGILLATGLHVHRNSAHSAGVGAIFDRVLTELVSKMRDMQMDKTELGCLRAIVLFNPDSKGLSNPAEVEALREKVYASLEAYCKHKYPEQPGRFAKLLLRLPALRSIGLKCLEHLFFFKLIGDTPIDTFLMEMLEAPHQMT
# Description: as §4
# RXRα [8] = target: T5, RXRα (Homo sapiens, UniProt P19793); assay: RXRα homodimer-mediated transcriptional activation in CV-1 cells; assay type: cell-based
# Description: as §4
# RARα [9] = target: T1, RARα; conditions: taken from Alam et al (9); cited from earlier work
# RARβ [10] = target: T2, RARβ; conditions: taken from Alam et al (9); cited from earlier work
# RARγ [11] = target: T3, RARγ; conditions: taken from Alam et al (9); cited from earlier work
# RXRα [12] = target: T5, RXRα; conditions: taken from Alam et al (9); cited from earlier work
# RARs = assay: binding to RARs (subtypes stated together in text)
# Description: as §3
# mouse skin papilloma [13] = conditions: 45.9 nmol dose; ref (8); cited from earlier work
# [14] = system: juvenile myelomonocytic leukemia (JMML); conditions: children with JMML; cited from earlier work
# [15] = read-out: normalized percent inhibition of CFU-GM colony growth, patient J83 (%)
# [16] = read-out: normalized percent inhibition of CFU-GM colony growth, patient J84 (%)
# [17] = read-out: normalized percent inhibition of CFU-GM colony growth, patient J83 (%), 10^-6 M
# [18] = read-out: normalized percent inhibition of CFU-GM colony growth, patient J83 (%), 10^-7 M
# [19] = read-out: normalized percent inhibition of CFU-GM colony growth, patient J84 (%), 10^-6 M
smiles,measurement,setting,value
"CC(=C\C=C\C(C)=C\C(=O)O)/C=C1\CCCc2ccccc21 [(all-E)-UAB30, (2E,4E,6E,8E)-8-(3',4'-Dihydro-1'(2'H)-naphthalen-1'-ylidene)3,7-dimethyl-2,4,6-octatrienoic acid]",EC50,HL-60 cells,> 10000 nM
same,EC50,NB4 cells; Homo sapiens,> 10000 nM
same,dose up to which not active in NB4 cell differentiation,"NB4 cells; retinoid alone, 3 days",> 40 mM
same,NB4 cell differentiation,"NB4 cells; retinoid alone, listed as all-trans-UAB30",inactive in NB4 cell differentiation; also recorded: not induce differentiation of NB4 cells
same,prevention of papilloma (tumor) formation,mouse skin papilloma [1],59%
same,inhibition at 0.1 µM,JMML cells; [15],68%
same,inhibition at 1 µM,JMML cells; [15],72%
same,inhibition at 0.01 µM,JMML cells; [16],28%
same,inhibition at 0.1 µM,JMML cells; [16],48%
same,inhibition at 1 µM,JMML cells; [16],57%
CCC1=C(C(C)C)/C(=C/C(C)=C\C=C\C(C)=C\C(=O)O)CCC1 [(9Z)-UAB8],IC50,RARα [2],> 1000 nM
same,IC50,RARβ [3],> 1000 nM
same,IC50,RARγ [4],> 1000 nM
same,EC50,RARα [5],> 1 µM
same,EC50,RARβ [6],> 2000 nM
same,EC50,RARγ [7],190 nM
same,EC50,RARα/RXRα,> 2 µM
same,EC30,"NB4 cells; Homo sapiens, NB-4, 72 h, retinoid alone, 3 days, read-out: ED30 NB4 cell differentiation",> 3000 µM
same,prevention of papilloma (tumor) formation,mouse skin papilloma [1],54%
CCC1=C(C(C)C)/C(=C/C(C)=C/C=C/C(C)=C\C(=O)O)CCC1 [(13Z)-UAB8],EC50,RARα [5],0.051 µM
same,EC50,RARγ [7],42 nM
same,EC50,RXRα [8],> 2 µM
same,EC50,RARα/RXRα,0.45 µM
same,EC50,HL-60 cells,> 10000 nM
same,IC50,RARα [9],900 nM
same,IC50,RARβ [10],371 nM
same,IC50,RARγ [11],708 nM
same,IC50,RXRα [12],> 1000 nM
same,inhibition at 1 µM,"JMML cells; read-out: normalized percent inhibition of CFU-GM colony growth, patient J43 (%)",80%
same,inhibition at 0.01 µM,JMML cells; [16],0%
same,inhibition at 0.1 µM,JMML cells; [16],18%
"CC(=C/C(=O)O)/C=C/C=C(C)/C=C1\CCCc2ccccc21 [(13Z)-UAB30, (2E,4E,6E,8E)-8-(3',4'-Dihydro-1'(2'H)-naphthalen-1'-ylidene)3,7-dimethyl-2,4,6-octatrienoic acid]",binding to the RAR subtypes,RARs,ineffective binder
same,EC50,HL-60 cells,> 10000 nM
same,EC50,NB4 cells; Homo sapiens,> 10000 nM
same,inhibition at 0.1 µM,JMML cells; [15],82%
same,inhibition at 1 µM,JMML cells; [15],88%
same,inhibition at 0.01 µM,JMML cells; [16],25%
same,inhibition at 0.1 µM,JMML cells; [16],72%
same,inhibition at 1 µM,JMML cells; [16],80%
"CCC1=C(C(C)C)/C(=C/C(C)=C\C=C\C(C)=C/C(=O)O)CCC1 [(9Z, 13Z)-UAB8]",EC50,HL-60 cells,> 10000 nM
same,EC50,"NB4 cells; Homo sapiens, 4-day induction of differentiation",> 10000 nM
"CC1=C(/C=C/C(C)=C\C=C\C(C)=C\C(=O)O)C(C)(C)CCC1 [(9Z)-RA, 9-cis-retinoic acid, reference compound]",NB4 cell differentiation,NB4 cells; retinoid alone,comparable to that of ATRA
same,prevention of papilloma (tumor) formation,mouse skin papilloma [13],95%
same,inhibition at 0.1 µM,"JMML cells; read-out: normalized percent inhibition of CFU-GM colony growth, patient J43 (%), 10^-7 M",98%
same,inhibition at 1 µM,JMML cells; [17],82%
same,inhibition at 0.1 µM,JMML cells; [18],72%
same,inhibition at 1 µM,JMML cells; [19],95%
"CC1=C(/C=C/C(C)=C/C=C/C(C)=C\C(=O)O)C(C)(C)CCC1 [(13Z)-RA, reference compound]",share of children in whom excessive myeloproliferation is controlled,[14],up to 50%
same,inhibition at 1 µM,"JMML cells; read-out: normalized percent inhibition of CFU-GM colony growth, patient J43 (%), 10^-6 M",109%
same,inhibition at 1 µM,JMML cells; [17],94%
same,inhibition at 0.1 µM,JMML cells; [18],86%
same,inhibition at 1 µM,JMML cells; [19],87%
